Assay results published in US20250099475A1, “METHODS OF TREATING HYPERTENSION BY PERIODIC SUPPRESSION OF ALDOSTERONE SYNTHASE” (Mineralys Therapeutics, Inc., priority 2022, published 2025).
“Also recorded” adds a separate entry of the source.

Experiments:
[1] = system: plasma cortisol concentrations (PCCs); assay: ACTH-treated cynomolgus monkey model; type: in vivo
Method: An adrenocorticotropic hormone (ACTH)-treated cynomolgus monkey model was performed to evaluate the effect of Compound A on plasma cortisol concentrations (PCCs). A dose of Compound A, as free base, that was 100-fold higher than required to reduce PACs (0.3 mg/kg by mouth) was administered, followed immediately by ACTH (50 μg/kg subcutaneously). PACs were also evaluated in the animals. PACs and PCCs were determined by radioimmunoassay and measured during the 24 hours after Compound A administration.

hypertensive subjects = assay: Example 4 dose-ranging study: automated office blood pressure (AOBP); type: in vivo, human; conditions: for Change in AOBP BPdias, Mean (sem) / Change in AOBP BPsys, Mean (sem): Week 8, Full Analysis Set
Method: A randomized, double-blinded, placebo-controlled, dose-ranging, multicenter study was conducted to evaluate the effect of orally administered Compound A HBr on blood pressure for the treatment of hypertension in male and female subjects ≥18 years of age.
The study consists of two parts. For enrollment into Part 1 of the study, a subject's value of plasma renin activity (PRA) must be ≤1 ng/mL/h based on morning measurement. If the value of PRA >1 ng/mL/h based on morning measurement, then subjects may be eligible to enter Part 2 of the study.
For Part 1, 163 enrolled subjects ≥18 years of age were randomized into 6 equal treatment groups (1:1:1:1:1:1) to 12.5 mg BID, 25 mg BID, 12.5 mg QD, 50 mg QD, 100 mg QD, or placebo. After a review of interim clinical data, the 2 lowest dose levels (12.5 mg QD and 12.5 mg BID) were stopped for future randomization due to a lack of consistent meaningful reduction of blood pressure, but the patients randomized to that point remained in the study through completion. Thus, after the review of interim clinical data, subjects were randomized into 4 equal treatment groups (1:1:1:1) to 25 mg BID, 50 mg QD, 100 mg QD, or placebo.
For Part 2, 36 enrolled subjects ≥18 years of age were randomized (5:1) to either 100 mg QD Compound A HBr or placebo such that the Compound A HBr treatment group consisted of approximately 30 subjects and the placebo treatment group will consist of approximately 6 subjects.
Subjects orally administered the assigned study drug (Compound A HBr or placebo) according to the assigned dosing regimen for 8 weeks beginning on Study Day 1. All subjects in Part 1 (regardless of dosing group) received BID dosing to preserve the integrity of the blind; active drug is administered as the morning dose for all QD dose groups. Subjects returned to the research facility or were seen by the clinical investigator or approved home health care professional at the end of Study Weeks 1, 2, 3, 4, 5, 6, 7, and 8 (±2 days) for protocol-defined efficacy and safety assessments and procedures, assessment of adverse events (AEs), and confirmation of compliance with study drug usage. Subjects also completed a telephone visit and blood pressure (BP) check at home approximately 3 days post last dose of study drug. Subjects attended up to 14 full clinic visits, including a pre-Screening visit, a Screening/start of Placebo Run-in visit, a second visit during Placebo Run-in, a clinic visit to initiate the ABPM procedure, a Randomization visit, 8 weekly visits during double-blind treatment, and an end-of-study visit scheduled 4 weeks after the last study treatment for final efficacy and safety assessments.
An automated oscillometric sphygmomanometer device was used to measure the subjects' systolic and diastolic blood pressure in office after approximately 5 minutes of rest in the seated position.
The primary endpoint is the change in office-measured (mean of last 2 of 5 unattended measurements using an automated oscillometric sphygmomanometer device after approximately 5 minutes of rest in the seated position) systolic blood pressure (SBP) from baseline to the end of Study Week 8.

[2] = pooled 50 mg QD, 100 mg QD, 12.5 mg BID and 25 mg BID cohorts (N=103)

Q: For `CC(=O)N[C@H]1CC[C@H](NC(=O)CN2CCN(c3nncc(-c4ccc(C)cc4)n3)CC2)CC1` [Compound A], which “selectivity for CYP11B2 over CYP11B1 in vivo” value ([1]; monkey models, dose ratio) is on record?
A: 100 fold

Q: What about the “effect on PCCs” value ([1]; single oral dose 100 times greater than the dose that inhibited PAC production, ACTH-loaded monkeys) of the same compound?
A: did not affect PCCs; also recorded: PCCs were not affected

Q: Which results are given for `CC(=O)N[C@H]1CC[C@H](NC(=O)CN2CCN(c3nncc(-c4ccc(C)cc4)n3)CC2)CC1` [Compound A HBr]?
A: reduction in AOBP systolic BP, placebo-corrected, Full-analysis set (hypertensive subjects; 100 mg, Part-1 and Part-2 (interim) combined, N=58 active): −9.9 mmHg; Difference from placebo in blood pressure change (LS modeled mean) (hypertensive subjects; Age 65-79, 12.5 mg BID): −1.5 (13); Difference from placebo in blood pressure change (LS modeled mean) (hypertensive subjects; Age 65-79, 12.5 mg QD): 1.1 (10); Difference from placebo in blood pressure change (LS modeled mean) (hypertensive subjects; Age 65-79, 25 mg BID): −2.4 (15); Difference from placebo in blood pressure change (LS modeled mean) (hypertensive subjects; Age 65-79, 50 mg QD): −8.8 (13); Difference from placebo in blood pressure change (LS modeled mean) (hypertensive subjects; Age 65-79, 100 mg QD): −1.6 (18); Difference from placebo in blood pressure change (LS modeled mean) (hypertensive subjects; Age <65, 12.5 mg BID): −5.4 (6); Difference from placebo in blood pressure change (LS modeled mean) (hypertensive subjects; Age <65, 12.5 mg QD): −0.3 (10); Difference from placebo in blood pressure change (LS modeled mean) (hypertensive subjects; Age <65, 25 mg BID): −8.5 (13); Difference from placebo in blood pressure change (LS modeled mean) (hypertensive subjects; Age <65, 50 mg QD): −10.2 (13); Difference from placebo in blood pressure change (LS modeled mean) (hypertensive subjects; Age <65, 100 mg QD): −15.7 (8); Difference from placebo in blood pressure change (LS modeled mean) (hypertensive subjects; Background hypertension therapy 2 medications, 12.5 mg BID): −1.2 (7); Difference from placebo in blood pressure change (LS modeled mean) (hypertensive subjects; Background hypertension therapy 2 medications, 12.5 mg QD): 1.8 (14); Difference from placebo in blood pressure change (LS modeled mean) (hypertensive subjects; Background hypertension therapy 2 medications, 25 mg BID): 1.4 (14); Difference from placebo in blood pressure change (LS modeled mean) (hypertensive subjects; Background hypertension therapy 2 medications, 50 mg QD): −3.7 (20); Difference from placebo in blood pressure change (LS modeled mean) (hypertensive subjects; Background hypertension therapy 2 medications, 100 mg QD): −7.5 (14); Difference from placebo in blood pressure change (LS modeled mean) (hypertensive subjects; Background hypertension therapy 3+ medications, 12.5 mg BID, * p < 0.05): −12.2* (15); Difference from placebo in blood pressure change (LS modeled mean) (hypertensive subjects; Background hypertension therapy 3+ medications, 12.5 mg QD): −6.0 (9); Difference from placebo in blood pressure change (LS modeled mean) (hypertensive subjects; Background hypertension therapy 3+ medications, 25 mg BID, * p < 0.05): −15.8* (16); Difference from placebo in blood pressure change (LS modeled mean) (hypertensive subjects; Background hypertension therapy 3+ medications, 50 mg QD, * p < 0.05): −19.1* (8); Difference from placebo in blood pressure change (LS modeled mean) (hypertensive subjects; Background hypertension therapy 3+ medications, 100 mg QD): −9.6 (16); Difference from placebo in blood pressure change (LS modeled mean) (hypertensive subjects; Baseline BPsys High tertile, 12.5 mg BID): −9.7; Difference from placebo in blood pressure change (LS modeled mean) (hypertensive subjects; Baseline BPsys High tertile, 12.5 mg QD): −3.6; Difference from placebo in blood pressure change (LS modeled mean) (hypertensive subjects; Baseline BPsys High tertile, 25 mg BID): −5.6; Difference from placebo in blood pressure change (LS modeled mean) (hypertensive subjects; Baseline BPsys High tertile, 50 mg QD, * p < 0.05): −20.6*; Difference from placebo in blood pressure change (LS modeled mean) (hypertensive subjects; Baseline BPsys High tertile, 100 mg QD): −9.7; Difference from placebo in blood pressure change (LS modeled mean) (hypertensive subjects; Baseline BPsys Low tertile, 12.5 mg BID): 3.8; Difference from placebo in blood pressure change (LS modeled mean) (hypertensive subjects; Baseline BPsys Low tertile, 12.5 mg QD): −10.7; Difference from placebo in blood pressure change (LS modeled mean) (hypertensive subjects; Baseline BPsys Low tertile, 25 mg BID): −8.8; Difference from placebo in blood pressure change (LS modeled mean) (hypertensive subjects; Baseline BPsys Low tertile, 50 mg QD): −8.3; Difference from placebo in blood pressure change (LS modeled mean) (hypertensive subjects; Baseline BPsys Low tertile, 100 mg QD): −11.8; Difference from placebo in blood pressure change (LS modeled mean) (hypertensive subjects; Baseline BPsys Middle tertile, 12.5 mg BID): −9.7; Difference from placebo in blood pressure change (LS modeled mean) (hypertensive subjects; Baseline BPsys Middle tertile, 12.5 mg QD): 9.3; Difference from placebo in blood pressure change (LS modeled mean) (hypertensive subjects; Baseline BPsys Middle tertile, 25 mg BID): −4.0; Difference from placebo in blood pressure change (LS modeled mean) (hypertensive subjects; Baseline BPsys Middle tertile, 50 mg QD): −11.9; Difference from placebo in blood pressure change (LS modeled mean) (hypertensive subjects; Baseline BPsys Middle tertile, 100 mg QD): −11.8; Difference from placebo in blood pressure change (LS modeled mean) (hypertensive subjects; Gender Female, 12.5 mg BID): −3.79 (14); Difference from placebo in blood pressure change (LS modeled mean) (hypertensive subjects; Gender Female, 12.5 mg QD): −0.2 (12); Difference from placebo in blood pressure change (LS modeled mean) (hypertensive subjects; Gender Female, 25 mg BID): −5.18 (19); Difference from placebo in blood pressure change (LS modeled mean) (hypertensive subjects; Gender Female, 50 mg QD): −11.3 (15); Difference from placebo in blood pressure change (LS modeled mean) (hypertensive subjects; Gender Female, 100 mg QD): −5.1 (18); Difference from placebo in blood pressure change (LS modeled mean) (hypertensive subjects; Gender Male, 12.5 mg BID): −13.8 (8); Difference from placebo in blood pressure change (LS modeled mean) (hypertensive subjects; Gender Male, 12.5 mg QD): −2.3 (11); Difference from placebo in blood pressure change (LS modeled mean) (hypertensive subjects; Gender Male, 25 mg BID): −9.5 (11); Difference from placebo in blood pressure change (LS modeled mean) (hypertensive subjects; Gender Male, 50 mg QD): −8.3 (13); Difference from placebo in blood pressure change (LS modeled mean) (hypertensive subjects; Gender Male, 100 mg QD): −12.4 (12); reduction in AOBP systolic BP, per-protocol, placebo-corrected (hypertensive subjects; Part-1 100 mg cohort): −10.3 mmHg; Difference from placebo in blood pressure change (LS modeled mean) (hypertensive subjects; Race Black, 12.5 mg BID): 5.57 (7); Difference from placebo in blood pressure change (LS modeled mean) (hypertensive subjects; Race Black, 12.5 mg QD): 6.75 (11); Difference from placebo in blood pressure change (LS modeled mean) (hypertensive subjects; Race Black, 25 mg BID): −10.1 (7); Difference from placebo in blood pressure change (LS modeled mean) (hypertensive subjects; Race Black, 50 mg QD): −6.9 (8); Difference from placebo in blood pressure change (LS modeled mean) (hypertensive subjects; Race Black, 100 mg QD): −7.0 (15); Difference from placebo in blood pressure change (LS modeled mean) (hypertensive subjects; Race Other, 12.5 mg BID): −14.7 (15); Difference from placebo in blood pressure change (LS modeled mean) (hypertensive subjects; Race Other, 12.5 mg QD): −7.5 (12); Difference from placebo in blood pressure change (LS modeled mean) (hypertensive subjects; Race Other, 25 mg BID): −7.2 (23); Difference from placebo in blood pressure change (LS modeled mean) (hypertensive subjects; Race Other, 50 mg QD): −12.1 (20); Difference from placebo in blood pressure change (LS modeled mean) (hypertensive subjects; Race Other, 100 mg QD): −9.2 (15); Change in AOBP BPdias, Mean (sem) (hypertensive subjects; 12.5 mg BID): −6.1 (1.8) mmHg; Change in AOBP BPsys, Mean (sem) (hypertensive subjects; 12.5 mg BID): −11.3 (3.1) mmHg; Change in AOBP BPdias, Mean (sem) (hypertensive subjects; 12.5 mg QD): −6.1 (1.8) mmHg; Change in AOBP BPsys, Mean (sem) (hypertensive subjects; 12.5 mg QD): −5.7 (3.1) mmHg; Change in AOBP BPdias, Mean (sem) (hypertensive subjects; 25 mg BID): −3.83 (2.1) mmHg; Change in AOBP BPsys, Mean (sem) (hypertensive subjects; 25 mg BID): −11.0 (2.6) mmHg; Change in AOBP BPdias, Mean (sem) (hypertensive subjects; 50 mg QD): −8.1 (1.7) mmHg; Change in AOBP BPsys, Mean (sem) (hypertensive subjects; 50 mg QD): −13.9 (2.6) mmHg; Change in AOBP BPdias, Mean (sem) (hypertensive subjects; 100 mg QD): −4.76 (1.5) mmHg; Change in AOBP BPsys, Mean (sem) (hypertensive subjects; 100 mg QD): −12.2 (2.7) mmHg; mean reduction in AOBP measured systolic BP (hypertensive subjects; doses of 50 mg and 100 mg QD): −11 to −13 mmHg; subjects with a change in BPsys >−15 mmHg (hypertensive subjects; [2]): 41%; subjects with a change in BPsys >−25 mmHg (hypertensive subjects; [2]): 25%; subjects who achieved >−23 mmHg fall in systolic blood pressure (hypertensive subjects; week 8, pooled 50 mg QD, 100 mg QD, 12.5 mg BID, 25 mg BID cohorts): 25%; mean reduction in systolic blood pressure in the highest response quartile (hypertensive subjects; week 8, pooled cohorts): −33.4+1.5 mmgHg; subjects who achieved a ≥15 mmHg fall in systolic blood pressure (hypertensive subjects; week 8, pooled cohorts): 41%
